# Measured values published in publication PMC6934184, “Selective DNA-PKcs inhibition extends the therapeutic index of localized radiotherapy and chemotherapy” (The Journal of Clinical Investigation, 2019).
# Molecular target: T1, STK25 (YSK1) (Homo sapiens, UniProt O00506)
# T1 construct: purchased Thermo Fisher Scientific (Life Technologies) SelectScreen
# Assay: SelectScreen Z'LYTE
# Format: biochemical
# In short: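 Percent values come from Thermo SelectScreen profiling of NU5455, combining activity and binding assays. CSF1R was run in Z'LYTE format at Km app ATP, and CAMK1 in Adapta format with ATP listed at 10.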
# T1 sequence (O00506 whole entry): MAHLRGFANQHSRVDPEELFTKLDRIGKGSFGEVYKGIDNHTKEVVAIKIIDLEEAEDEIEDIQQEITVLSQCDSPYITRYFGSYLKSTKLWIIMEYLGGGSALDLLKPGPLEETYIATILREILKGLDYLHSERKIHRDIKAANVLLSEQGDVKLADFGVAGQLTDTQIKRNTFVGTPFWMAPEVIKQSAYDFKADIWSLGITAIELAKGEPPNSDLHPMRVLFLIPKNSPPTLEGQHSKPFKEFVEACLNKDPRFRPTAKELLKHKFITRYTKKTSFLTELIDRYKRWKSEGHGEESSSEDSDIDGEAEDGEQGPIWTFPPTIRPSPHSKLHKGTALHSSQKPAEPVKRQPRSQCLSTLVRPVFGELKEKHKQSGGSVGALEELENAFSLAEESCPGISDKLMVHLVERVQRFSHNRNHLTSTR
compound,measurement,value
CN(C(=O)CN1CCOCC1)c1ccc2sc3c(-c4cccc5c(=O)cc(N6CC7CCC(C6)O7)oc45)cccc3c2c1 [NU5455],inhibition at 1 µM,-11.4%
